Measurements: patent US7696184B2, “Amino-propanol derivatives as sphingosine-1-phosphate receptor modulator” (Novartis AG, priority 2003, dated 2010)

Tests used:
[1] = system: peripheral blood lymphocytes; experiment: In vivo: Blood Lymphocyte Depletion; conditions: rats, p.o.
Procedure: B. In vivo: Blood Lymphocyte Depletion
A compound of formula I or the vehicle is administered orally by gavage to rats. Tail blood for hematological monitoring is obtained on day -1 to give the baseline individual values, and at 2, 6, 24, 48 and 72 hours after application. In this assay, the compounds of formula I deplete peripheral blood lymphocytes when administered at a dose of 0.03 to 3 mg/kg. For example, following results are obtained: depletion of peripheral blood lymphocytes by more than 50%

[2] = molecular target: T1, human S1P receptor EDG-8 (S1P5) (Homo sapiens, UniProt Q9H228); experiment: S1P receptor profiling, GTP[γ-35S] binding SPA, S1P5; type: biochemical; conditions: for EC50: GTP[γ-35S] binding, membranes of transfected CHO or RH7777 cells; for S1P5 mode of action: column beside S1P5 EC50
T1 construct: expressed in transfected cells
Procedure: (§1) Sphingosine-1-phosphate (S1P) Receptor Profiling
(§2) Agonist activities of compounds are tested on the human SIP receptors EDG-1 (S1P1), EDG-3 (S1P3), EDG-5 (S1P2), EDG-6 (S1P4) and EDG-8 (S1P5). […] The assay technology used is SPA (scintillation proximity based assay). Briefly, DMSO dissolved compounds are serially diluted and added to SPA-bead (Amersham-Pharmacia) immobilised S1P receptor expressing membrane protein (10-20 μg/well) in the presence of 50 mM Hepes, 100 mM NaCl, 10 mM MgCl2, 10 μM GDP, 0.1% fat free BSA and 0.2 nM GTP [γ-^35S] (1200 Ci/mmol). After incubation in 96 well microtiterplates at RT for 120 min, unbound GTP [γ-^35S] is separated by a centrifugation step. Luminescence of SPA beads triggered by membrane bound GTP [γ-^35S] is quantified with a TOPcount plate reader (Packard). EC50s are calculated using standard curve fitting software.

[3] = molecular target: T2, human S1P receptor EDG-6 (S1P4) (Homo sapiens, UniProt O95977); experiment: S1P receptor profiling, GTP[γ-35S] binding SPA, S1P4; type: biochemical; conditions: for EC50: GTP[γ-35S] binding, membranes of transfected CHO or RH7777 cells; for S1P4 mode of action: column beside S1P4 EC50
T2 construct: expressed in transfected cells
T2 sequence (O95977 1-384): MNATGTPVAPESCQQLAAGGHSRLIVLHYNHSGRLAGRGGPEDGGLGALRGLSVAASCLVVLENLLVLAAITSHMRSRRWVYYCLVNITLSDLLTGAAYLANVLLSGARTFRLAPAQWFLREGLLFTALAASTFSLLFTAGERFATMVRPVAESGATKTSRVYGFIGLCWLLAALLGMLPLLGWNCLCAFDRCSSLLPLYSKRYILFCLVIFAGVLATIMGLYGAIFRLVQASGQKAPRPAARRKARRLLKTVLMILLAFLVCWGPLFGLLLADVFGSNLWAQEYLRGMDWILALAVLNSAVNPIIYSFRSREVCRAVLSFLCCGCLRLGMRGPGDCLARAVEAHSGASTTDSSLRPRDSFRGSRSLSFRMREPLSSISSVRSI
Procedure: as §1, §2

[4] = molecular target: T3, human S1P receptor EDG-3 (S1P3) (Homo sapiens, UniProt Q99500); experiment: S1P receptor profiling, GTP[γ-35S] binding SPA, S1P3; type: biochemical; conditions: membranes of transfected CHO or RH7777 cells
T3 construct: expressed in transfected cells
Procedure: as §1, §2

[5] = molecular target: T4, human S1P receptor EDG-1 (S1P1) (Homo sapiens, UniProt P21453); experiment: S1P receptor profiling, GTP[γ-35S] binding SPA, S1P1; type: biochemical; conditions: for EC50: GTP[γ-35S] binding, membranes of transfected CHO or RH7777 cells
T4 construct: expressed in transfected cells
Procedure: as §1, §2

[6] = molecular target: T5, human S1P receptor EDG-5 (S1P2) (Homo sapiens, UniProt O95136); experiment: S1P receptor profiling, GTP[γ-35S] binding SPA, S1P2; type: biochemical; conditions: membranes of transfected CHO or RH7777 cells
T5 construct: expressed in transfected cells
Procedure: as §1, §2

T4 sequence (P21453 whole entry): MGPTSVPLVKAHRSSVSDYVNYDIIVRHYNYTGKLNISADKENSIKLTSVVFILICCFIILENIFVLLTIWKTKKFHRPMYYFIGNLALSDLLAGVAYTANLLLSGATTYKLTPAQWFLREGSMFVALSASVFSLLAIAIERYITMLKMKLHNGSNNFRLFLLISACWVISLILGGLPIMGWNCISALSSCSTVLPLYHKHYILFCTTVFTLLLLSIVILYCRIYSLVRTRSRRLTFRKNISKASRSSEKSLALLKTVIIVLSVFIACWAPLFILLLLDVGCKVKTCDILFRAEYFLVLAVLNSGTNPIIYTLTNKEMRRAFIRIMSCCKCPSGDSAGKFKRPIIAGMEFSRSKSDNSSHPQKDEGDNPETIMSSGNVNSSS
T1 sequence (Q9H228 whole entry): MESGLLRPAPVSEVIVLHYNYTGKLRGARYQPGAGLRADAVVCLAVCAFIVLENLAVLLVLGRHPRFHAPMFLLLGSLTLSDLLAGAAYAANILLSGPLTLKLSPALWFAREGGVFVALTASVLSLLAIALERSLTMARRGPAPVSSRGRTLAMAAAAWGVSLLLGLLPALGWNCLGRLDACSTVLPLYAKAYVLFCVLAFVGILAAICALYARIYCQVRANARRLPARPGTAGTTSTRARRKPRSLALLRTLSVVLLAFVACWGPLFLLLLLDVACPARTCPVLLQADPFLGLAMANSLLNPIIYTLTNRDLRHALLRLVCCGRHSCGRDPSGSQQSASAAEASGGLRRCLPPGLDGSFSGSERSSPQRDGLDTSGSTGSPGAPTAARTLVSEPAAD
T5 sequence (O95136 whole entry): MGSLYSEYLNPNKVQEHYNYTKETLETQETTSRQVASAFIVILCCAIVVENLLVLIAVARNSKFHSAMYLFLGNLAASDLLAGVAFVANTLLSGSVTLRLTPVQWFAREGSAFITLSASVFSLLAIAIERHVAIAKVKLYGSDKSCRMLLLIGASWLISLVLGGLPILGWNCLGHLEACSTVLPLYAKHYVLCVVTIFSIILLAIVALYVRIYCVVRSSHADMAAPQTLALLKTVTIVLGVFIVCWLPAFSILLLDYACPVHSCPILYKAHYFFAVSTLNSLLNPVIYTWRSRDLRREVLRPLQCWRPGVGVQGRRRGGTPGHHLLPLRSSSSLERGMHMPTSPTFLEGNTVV
T3 sequence (Q99500 whole entry): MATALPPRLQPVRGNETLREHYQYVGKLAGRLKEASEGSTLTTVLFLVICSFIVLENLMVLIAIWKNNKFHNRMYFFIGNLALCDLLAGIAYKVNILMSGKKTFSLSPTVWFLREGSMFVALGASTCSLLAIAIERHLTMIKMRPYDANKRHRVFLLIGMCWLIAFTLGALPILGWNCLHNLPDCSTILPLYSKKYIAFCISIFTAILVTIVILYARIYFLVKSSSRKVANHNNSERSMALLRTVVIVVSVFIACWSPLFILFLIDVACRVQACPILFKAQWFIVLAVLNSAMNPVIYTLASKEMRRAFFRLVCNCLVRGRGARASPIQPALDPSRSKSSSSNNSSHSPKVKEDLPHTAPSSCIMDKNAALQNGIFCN

Row | SMILES | EC50 [2] | S1P5 mode of action [2] | EC50 [3] | S1P4 mode of action [3] | EC50 [4] | S1P1 mode of action [5] | EC50 [5] | EC50 [6] | dose giving depletion of peripheral blood lymphocytes by more than 50% ([1]; after 6 h) | dose giving depletion of peripheral blood lymphocytes by more than 50% ([1]; after 48 h)
1 | CCCCCOc1c(Cl)cc(CC[C@@](C)(N)CO)cc1Cl [Example 1, (R)-2-Amino-4-(3,5-dichloro-4-pentyloxy-phenyl)-2-methyl-butan-1-ol Hydrotriflate] |  |  |  |  |  |  |  |  | 0.5 mg/kg | > 1 mg/kg
2 | COc1cc(CC[C@@](C)(N)CO)cc(Cl)c1OCCCC(F)(F)C(F)(F)F.Cl [Example 5, (R)-2-Amino-4-[3-chloro-5-methoxy-4-(4,4,5,5,5-pentafluoro-pentyloxy)-phenyl]-2-methyl-butan-1-ol Hydrochloride] |  |  |  |  |  |  |  |  | 0.2 mg/kg | > 1 mg/kg
3 | CCOc1ccc(CCOc2c(Cl)cc(CC[C@@](C)(N)CO)cc2OC)cc1 [Example 9, (R-2-Amino-4-{3-chloro-4-[2-(4-ethoxy-phenyl)-ethoxy]-5-methoxy-phenyl}-2-methyl-butan-1-ol Hydrotriflate] |  |  |  |  |  |  |  |  | 0.2 mg/kg | 

Continued, in another order:

Row | EC50 [2] | S1P5 mode of action [2] | EC50 [3] | S1P4 mode of action [3] | EC50 [4] | S1P1 mode of action [5] | EC50 [5] | EC50 [6] | SMILES | dose giving depletion of peripheral blood lymphocytes by more than 50% ([1]; after 6 h) | dose giving depletion of peripheral blood lymphocytes by more than 50% ([1]; after 48 h)
4 | 0.2 nM | Agon. | 0.2 nM | Agon. | > 10000 nM | Agon. | 0.2 nM | > 10000 nM | CCCCCOc1c(Cl)cc(CC[C@@](C)(N)COP(=O)(O)O)cc1Cl [Example 4, Phosphoric acid mono-[(R)-2-amino-4-(3,5-dichloro-4-pentyloxy-phenyl)-2-methyl-butyl]ester] |  | 
5 | 0.2 nM | Agon. | 0.8 nM | Agon. | > 10000 nM | Agon. | 1.3 nM | > 10000 nM | COc1cc(CC[C@@](C)(N)COP(=O)(O)O)cc(Cl)c1OCCCC(F)(F)C(F)(F)F [Example 6, Phosphoric acid mono-{(R)-2-amino-4-[3-chloro-5-methoxy-4-(4,4,5,5,5-pentafluoro-pentyloxy)-phenyl]-2-methyl-butyl}ester] |  | 
6 | 2.5 nM |  | > 10000 nM |  | 111 nM |  | 0.3 nM | > 10000 nM | CCOc1ccc(CCOc2c(Cl)cc(CC[C@@](C)(N)COP(=O)(O)O)cc2OC)cc1 [Example 10, Phosphoric acid mono-((R)-2-amino-4-{3-chloro-4-[2-(4-ethoxy-phenyl)-ethoxy]-5-methoxy-phenyl}-2-methyl-butyl)ester] |  | 
